Assay [1] deals with PD-L1. The experiment in a line: FACS analysis for PD-L1 cell surface expression after interferon treatment. Format: cell-based. As to conditions: IFNα 1000 IU/ml, 48 hours, **p<0.01. As for the experimental part: A loss of IRF9 causes PD-L1 expression to be increased after IFNα stimulation. FACS analysis for PD-L1 cell surface expression using PE tagged anti-PD-L1, MIH5 (1:50). Cells were treated with IFNα (1000 IU/ml) or IFNγ (10 ng/ml) for 48 hours prior to FACS. Data is represented as normalised mean fluorescence intensity (MFI). Error bars represent SEM, n=3. Statistical significance values equal: **p<0.01.
For orientation: Flow cytometry measures light scatter and fluorescence of single cells or particles in a stream.

The test system of assay [2] is 4T1.2-luc2 cells. Nature of the assay: poly(I:C) treatment of mice bearing 4T1.2-luc2 mammary fat pad tumours, metastasis by bioluminescence and QPCR. Format: in vivo, balb/c mice. As to conditions: 25 ug poly(I:C) 3x weekly IV from day 4; primary tumour resected at 0.4 g; bioluminescence and QPCR of luciferase vs vimentin; *p<0.05, **p<0.01. As for the experimental part:
From day 4, mice were treated with 25 ug poly(I:C) or control 3× weekly IV. After primary tumour resection at 0.4 g, mice were monitored for metastasis by bioluminescence (A) and by QPCR analysis of luciferase expression compared to vimentin at end point (B). *p<0.05, **p<0.01.
Expression of Irf9 is knocked out in balb/c (66c14, 4T1) and C57 B1/6 (EO771, PyMT) mouse cell lines and the impact on tumour cell proliferation and orthotopic tumour growth and metastasis in vivo, is required. Associated changes in tumour infiltating and circulating immune cells, impact on tumour cell susceptibility to immune effector cells in vitro and the impact of NK cell specific loss of IFN signalling is measured. • a) Using TALEN technology (Boch J. TALEs of genome targeting. Nature biotechnology. 2011; 29(2):135-6) an Irf9 knockout 4T1 cell line has been generated (FIG. 5). This is repeated in 66c14, EO771 and PyMT cell lines. Given that Irf7 is induced by the ISGF3 complex of STAT1/2 and Irf9, Irf9 loss will likely directly result in reduction of Irf7. Irf7 we can also be knocked out directly in these cells. • The impact of Irf9 loss is measured on cellular proliferation using the SRB assay. […] The activation and function of NK cells is measured by measuring the expression of NKG2D, DNAM-1 and IFNγ on NKp46^+ NK cells. […]

In assay [3] the test system is 4T1.2-Luc2. The experiment in a line: neo-adjuvant poly(I:C) therapy, primary tumour growth and survival. Format: in vivo, Balb/c mice. As for the experimental part: Female 8-week-old Balb/c mice were administered poly(I:C) (25 μg, I.V., thrice weekly) and/or doxorubicin (4 mg/kg, twice weekly) beginning 2 days post tumour cell inoculation (100,000 4T1.2-Luc2 IMFP). Differences in primary tumour growth were detectable 6 days after tumour cell inoculation using bioluminescent imaging (of four mice representative of the larger cohort) (A). Therapy was ceased and primary tumours were surgically removed and weighed 12 days post tumour cell injection (B). n=10 mice per group, error bars represent the 95% CI, *p<0.05, **p<0.01, ***p<0.001 using Student's t-tests.
Mice used in FIG. 2 continued to undergo weekly bioluminescent imaging to visualise the kinetics of metastatic spread. (A) Images taken 19 and 23 days post tumour cell inoculation are of the same four mice in identical order and representative of the larger cohort. (B) Mice were individually sacrificed at first signs of metastatic distress and dates recorded to generate Kaplan-Meier survival estimates. […]
Tumour-bearing mice are treated with poly(I:C), a stable derivative of poly(I:C):poly ICLC that is currently in clinical trials (Hiltonol™, Oncovir) or recombinant IFNα1 in early and late treatment settings and the impact of such treatments on immune activation and function, primary tumour growth and metastasis is measured. […]

Turning to IFNα, the “PD-L1 expression in cells with loss of IRF9” value in assay [1] is given as “increased”.
Turning to poly(I:C), in assay [2], the “metastasis to lung and bone” value is “reduces metastasis to lung and bone”. In addition, in assay [3] (neo-adjuvant therapy ceased day 12, mice sacrificed at first signs of metastatic distress, ***p<0.001), the “survival (Kaplan-Meier)” value is reported as “prolongs survival”. Besides, the primary tumour growth entry in assay [3] (poly(I:C) 25 μg I.V. thrice weekly from 2 days post inoculation, bioluminescence day 6, tumour weight day 12) is “reduces primary tumour growth”.

The values are drawn from US11243205B2, “Method of diagnosis of breast cancer” (LA TROBE UNIVERSITY, priority 2015, dated 2022).
